Some results are limits rather than exact numbers.

Experimental findings from patent US20240124466A1, “COMPOUNDS AND USE THEREOF FOR TREATMENT OF NEURODEGENERATIVE, DEGENERATIVE AND METABOLIC DISORDERS” (VOVA IDA THERAPEUTICS, INC., priority 2020, published 2024) are described below.

The assay concerns PK1 neuroblastoma cells exposed to TPrP. The assay is described as follows: cells. As to conditions: Neuroblastoma cell, 96 h, read-out: TPrP EC50.

With `C#CCCC(=O)CCn1cc(-c2ccc(C)c(S(=O)(=O)N3CCN(CCc4ccncc4)CC3)c2)cn1` [SR-35186, 1-(4-(4-Methyl-3-((4-(2-(pyridin-4-yl)ethyl)piperazin-1-yl)sulfonyl)phenyl)-1H-pyrazol-1-yl)hept-6-yn-3-one], the EC50 (commonly the concentration needed to bring the measured effect to its halfway point) is under 5 nM.

As to `Cc1ccc(-c2nnc(-c3ccccc3)[nH]2)cc1S(=O)(=O)N1CCOCC1CO` (stereo not shown) [SR-32945, (4-((2-Methyl-5-(5-phenyl-4H-1,2,4-triazol-3-yl)phenyl)sulfonyl)morpholin-3-yl)methanol], the EC50 came out at 300 nM. With `O=S(=O)(c1ccc(-c2nnc(-c3ccccc3)[nH]2)cc1C(F)(F)F)N1CCOCC1` [SR-26444, 4-((4-(5-Phenyl-4H-1,2,4-triazol-3-yl)-2-(trifluoromethyl)phenyl)sulfonyl) morpholine], the EC50 is over 320 nM. Turning to `Cc1ccc(-c2cnn(Cc3ccccc3)c2)cc1S(=O)(=O)N1CCOCC1` [SR-28764, 4-((5-(1-Benzyl-1H-pyrazol-4-yl)-2-methylphenyl)sulfonyl)morpholine], the concentration for a half-maximal effect (EC50) is 150 nM. `COc1ccc(-c2nnc(-c3ccc(C)c(S(=O)(=O)N4CCOCC4)c3)[nH]2)cc1` [SR-28104, 4-((5-(5-(4-Methoxyphenyl)-4H-1,2,4-triazol-3-yl)-2-methylphenyl)sulfonyl) morpholine]: the EC50 was found to be 15 nM.

Take `Cc1ccc(-c2ccnc(N3CCOCC3)c2)cc1S(=O)(=O)N1CC(O)C1` [SR-34464, 1-((2-Methyl-5-(2-morpholinopyridin-4-yl)phenyl)sulfonyl)azetidin-3-ol]: the concentration giving a half-maximal response (EC50) turned out to be 300 nM. `Cc1ccc(-c2n[nH]c3ccccc23)cc1S(=O)(=O)N1CCOCC1` [SR-27564, 4-((5-(1H-Indazol-3-yl)-2-methylphenyl)sulfonyl)morpholine]: the EC50 was 135 nM. Under `Cc1cc(C)c(S(=O)(=O)N2CCN(CCO)CC2)cc1-c1nnc(-c2ccccc2)[nH]1` [SR-34778, 2-(4-((2,4-Dimethyl-5-(5-phenyl-4H-1,2,4-triazol-3-yl)phenyl)sulfonyl)piperazin-1-yl)ethan-1-ol] stands 13 nM; under `Cc1ccc(-c2ccnc(-c3ccc(F)cc3)c2)cc1S(=O)(=O)N1CCOCC1` [SR-28924, 4-((5-(2-(4-Fluorophenyl)pyridin-4-yl)-2-methylphenyl)sulfonyl)morpholine], 40 nM.

Take `Cc1ccc(-c2nnc(-c3ccccc3)[nH]2)cc1S(=O)(=O)NC1CCC2(CC1)OCCO2` [SR-32764, 2-Methyl-5-(5-phenyl-4H-1,2,4-triazol-3-yl)-N-(1,4-dioxaspiro[4.5]decan-8-yl)benzenesulfonamide]: the EC50 was over 1500 nM. To `Cc1ccc(-c2csc(-c3ccccc3)c2)cc1S(=O)(=O)N1CCOCC1` [SR-29184, 4-((2-Methyl-5-(5-phenylthiophen-3-yl)phenyl)sulfonyl)morpholine] belongs over 1200 nM; to `Cc1ccc(-c2coc(-c3ccccc3)c2)cc1S(=O)(=O)N1CCOCC1` [SR-29044, 4-((2-Methyl-5-(5-phenylfuran-3-yl)phenyl)sulfonyl)morpholine], over 1200 nM; to `Cc1ccc(-c2nnc(-c3ccccc3)[nH]2)cc1S(=O)(=O)N1CCC(O)CC1` [SR-32045, 1-((2-Methyl-5-(5-phenyl-4H-1,2,4-triazol-3-yl)phenyl)sulfonyl)piperidin-4-ol], over 1500 nM. Regarding `Cc1ccc(-c2ccncc2)cc1S(=O)(=O)N1CCOCC1` [SR-24583], the EC50 came out at 100 nM. As for `Cc1ccc(-c2ccn(-c3ccccc3)c2)cc1S(=O)(=O)N1CCOCC1` [SR-29084, 4-((2-Methyl-5-(1-phenyl-1H-pyrrol-3-yl)phenyl)sulfonyl)morpholine], the 50% effective concentration (EC50) turned out to be 600 nM. Consider `N#Cc1ccc(-c2nnc(-c3ccccc3)[nH]2)cc1S(=O)(=O)N1CCOCC1` [SR-27504, 2-(Morpholinosulfonyl)-4-(5-phenyl-4H-1,2,4-triazol-3-yl)benzonitrile], for which the EC50 was over 320 nM. As to `Cc1ccc(-c2cnn(-c3ccccc3)c2)cc1S(=O)(=O)N1CCOCC1` [SR-28925, 4-((2-Methyl-5-(1-phenyl-1H-pyrazol-4-yl)phenyl)sulfonyl)morpholine], the half-maximal effective concentration (EC50) came to 20 nM. For `CC(=O)NC1CCN(CCn2cc(-c3ccc(C)c(S(=O)(=O)N4CCOCC4)c3)cn2)CC1` [SR-25864, N-(1-(2-(4-(4-methyl-3-(morpholinosulfonyl)phenyl)-1H-pyrazol-1-yl)ethyl)piperidin-4-yl)acetamide], the concentration giving a half-maximal response (EC50) amounted to 120 nM. `CC(=O)N(C)CCN(C)c1cc(-c2ccc(C)c(S(=O)(=O)N3CCOCC3)c2)ccn1` [SR-25124, N-methyl-N-(2-(methyl(4-(4-methyl-3-(morpholinosulfonyl)phenyl)pyridin-2-yl)amino)ethyl)acetamide]: the concentration giving a half-maximal response (EC50) was found to be 240 nM. `C[C@@H]1CN(S(=O)(=O)c2cc(-c3nnc(-c4ccccc4)[nH]3)ccc2C(F)(F)F)C[C@H](C)O1` [SR-30786, (cis)-2,6-dimethyl-4-((5-(5-phenyl-4H-1,2,4-triazol-3-yl)-2-(trifluoromethyl)phenyl)sulfonyl)morpholine]: the concentration giving a half-maximal response (EC50) was over 1200 nM. To `Cc1ccc(-c2nnc(-c3ccc(F)cc3)[nH]2)cc1S(=O)(=O)N1CCOCC1` [SR-27964, 4-((5-(5-(4-Fluorophenyl)-4H-1,2,4-triazol-3-yl)-2-methylphenyl)sulfonyl) morpholine] belongs 40 nM. For the compound `O=S(=O)(c1cc(-c2nnc(-c3ccccc3)[nH]2)ccc1C1CC1)N1CCOCC1` [SR-29784, 4-((2-Cyclopropyl-5-(5-phenyl-4H-1,2,4-triazol-3-yl)phenyl)sulfonyl) morpholine], the EC50 stood at 600 nM. Take `Cc1ccc(-c2nnc(-c3ccccc3)s2)cc1S(=O)(=O)N1CCOCC1` [SR-27524, 4-((2-Methyl-5-(5-phenyl-1,3,4-thiadiazol-2-yl)phenyl)sulfonyl)morpholine]: the concentration for a half-maximal effect (EC50) was 180 nM. To `COCCN1CCN(S(=O)(=O)c2cc(-c3nnc(-c4ccccc4)[nH]3)ccc2C)CC1` [SR-34533, 1-(2-Methoxyethyl)-4-((2-methyl-5-(5-phenyl-4H-1,2,4-triazol-3-yl)phenyl)sulfonyl)piperazine] belongs over 1500 nM. Under `Cc1ccc(-c2ccnc(Cl)c2)cc1S(=O)(=O)N1CCNCC1` [SR-35422, 1-((5-(2-Chloropyridin-4-yl)-2-methylphenyl)sulfonyl)piperazine] stands under 5 nM; under `Cc1ccc(-c2ccnc(Cl)c2)cc1S(=O)(=O)N1CCN(CC(F)F)CC1` [SR-35124, 1-((5-(2-Chloropyridin-4-yl)-2-methylphenyl)sulfonyl)-4-(2,2-difluoroethyl) piperazine], over 1500 nM.

As for `Cc1ccc(-c2nnc(-c3ccccc3)[nH]2)cc1S(=O)(=O)N1CCC(O)(Cc2ccccc2)CC1` [SR-33024, 4-Benzyl-1-((2-methyl-5-(5-phenyl-4H-1,2,4-triazol-3-yl)phenyl)sulfonyl) piperidin-4-ol], the EC50 was over 1500 nM. To `Cc1cc(C)c(S(=O)(=O)N2CCN(CCO)CC2)cc1-c1ccnc(Cl)c1` [SR-34951, 2-(4-((5-(2-Chloropyridin-4-yl)-2,4-dimethylphenyl)sulfonyl)piperazin-1-yl)ethan-1-ol] belongs 90 nM; to `Cc1ccc(-c2nnc(-c3ccccc3)[nH]2)cc1S(=O)(=O)N1CCC2(CCCO2)CC1` [SR-32925, 8-((2-Methyl-5-(5-phenyl-4H-1,2,4-triazol-3-yl)phenyl)sulfonyl)-1-oxa-8-azaspiro[4.5]decane], over 1500 nM. As for `Cc1ccc(-c2nnc(-c3ccccc3)[nH]2)cc1S(=O)(=O)N1CCN(CCc2ccncc2)CC1` [SR-33364, 1-((2-Methyl-5-(5-phenyl-4H-1,2,4-triazol-3-yl)phenyl)sulfonyl)-4-(2-(pyridin-4-yl)ethyl)piperazine], the concentration for a half-maximal effect (EC50) was found to be 5 nM. With `Cc1ccc(-c2nnc(-c3ccccc3)[nH]2)cc1C(=O)N1CCOCC1` [SR-32044, (2-Methyl-5-(5-phenyl-4H-1,2,4-triazol-3-yl)phenyl)(morpholino)methanone], the concentration for a half-maximal effect (EC50) is about 1500 nM. Under `Cc1ccc(-c2ccnc(Cl)c2)cc1S(=O)(=O)N1CCN(CC(F)(F)F)CC1` [SR-35324, 1-((5-(2-Chloropyridin-4-yl)-2-methylphenyl)sulfonyl)-4-(2,2,2-trifluoroethyl) piperazine] stands over 1500 nM; under `Cc1ccc(-c2cnn(CCN3CCOCC3)c2)cc1S(=O)(=O)N1CCOCC1` [SR-24581], 100 nM; under `Cc1ccc(-c2nnc(-c3ccccc3)[nH]2)cc1S(=O)(=O)N1CCN(C2COC2)CC1` [SR-32324, 1-((2-Methyl-5-(5-phenyl-4H-1,2,4-triazol-3-yl)phenyl)sulfonyl)-4-(oxetan-3-yl)piperazine], 900 nM.

In the case of `O=S(=O)(c1cc(-c2nnc(-c3ccccc3)[nH]2)ccc1OC(F)(F)F)N1CCOCC1` [SR-31545, 4-((5-(5-Phenyl-4H-1,2,4-triazol-3-yl)-2-(trifluoromethoxy)phenyl)sulfonyl) morpholine], the concentration for a half-maximal effect (EC50) is over 1500 nM.

With `C=CCN1C[C@H](C)N(S(=O)(=O)c2cc(-c3ccnc(Cl)c3)ccc2C)C[C@H]1C` (relative stereo) [SR-35465, (trans)-1-allyl-4-((5-(2-chloropyridin-4-yl)-2-methylphenyl)sulfonyl)-2,5-dimethylpiperazine], the 50% effective concentration (EC50) was over 1500 nM.

Regarding `Cc1ccc(-c2nnc(-c3ccccc3)[nH]2)cc1S(=O)(=O)NC(C)(C)CO` [SR-32184, N-(1-hydroxy-2-methylpropan-2-yl)-2-methyl-5-(5-phenyl-4H-1,2,4-triazol-3-yl)benzenesulfonamide], the EC50 is 180 nM. With `Cc1ccc(-c2ncc(-c3ccccc3)[nH]2)cc1S(=O)(=O)N1CCOCC1` [SR-28804, 4-((2-Methyl-5-(5-phenyl-1H-imidazol-2-yl)phenyl)sulfonyl)morpholine], the EC50 turned out to be 400 nM. For the compound `Cc1ccc(-c2ccnc(Cl)c2)cc1S(=O)(=O)N1CCN(CCO)CC1` [SR-34793, 2-(4-((5-(2-Chloropyridin-4-yl)-2-methylphenyl)sulfonyl)piperazin-1-yl)ethan-1-ol], the concentration giving a half-maximal response (EC50) worked out at 40 nM. For `Cc1ccc(-c2ccnc(Cl)c2)cc1S(=O)(=O)N1CCN(CCCO)CC1` [SR-35129, 3-(4-((5-(2-Chloropyridin-4-yl)-2-methylphenyl)sulfonyl)piperazin-1-yl)propan-1-ol], the EC50 was over 1500 nM.
